Test results as given in paper PMC5717258, “Bioaccumulation of pharmaceuticals and personal care product chemicals in fish exposed to wastewater effluent in an urban wetland” (Scientific Reports, 2017).

Experiments:
[1] = human; converted from µg/mL; ref Schulz et al.[56]; cited from earlier work
[2] = parameters: method as in US EPA Chemistry Dashboard; settings: ref US EPA Chemistry Dashboard; cited from earlier work
[3] = ref Meador et al. 18; cited from earlier work
[4] = for Cootes carp plasma, range of concentrations: Cootes Paradise Marsh; for plasma concentration, CPM-C 01: Cootes carp 01, 2011, male; for plasma concentration, CPM-C 2: Cootes carp 2, Sep 27, 2011, male; for plasma concentration, CPM-C 10: Cootes carp 10, Sep 28, 2011, female; for plasma concentration, CPM-C 13: Cootes carp 13, Sep 28, 2011, female; for plasma concentration, CPM-C 20: Cootes carp 20, 2011, male; for plasma concentration, CPM-C 36: Cootes carp 36, Oct 3, 2011, female; for plasma concentration, JH-C 75: Jordan Harbour carp 75, Nov 7, 2011, female; for plasma concentration, carp, this study (mean) / plasma concentration, goldfish, this study (mean): Table S8
Experimental: (§1) Plasma from 9 individual male fish (500 µL/individual) was pooled to yield 3 samples for PPCP analysis. […] Plasma from 6 individual carp (2.3–3.5 g) from each location was selected for PPCP analysis. […] Plasma samples were frozen (−80 °C) until analysis.
(§2) A total of 20 fish plasma samples from the pooled caged fish (7) and the wild fish (13) along with 12 water samples were selected for analysis. […] A full list of analytes is provided in Supplementary Information. Mass labelled^13C-, or deuterated surrogate internal standards were used for quantification of all analytes via the isotope dilution/surrogate standard quantitation method. Prior to extraction and/or clean-up procedures, aqueous samples were adjusted to pH 2.0, spiked with extraction surrogate standards, then adjusted to pH 4 using tetrasodium ethylenediamine-tetraacetate dihydrate. Plasma samples (2.3–2.5 g) were spiked with extraction surrogate standards, sonicated with 20 mL acetonitrile, then diluted with ultra-pure water to 200 mL. The extracts were cleaned up by solid phase extraction using Oasis HLB cartridges (Waters Ltd. Mississauga ON), filtered, and analyzed by liquid chromatography-electrospray ionization-tandem mass spectrometry (LC/ESI-MS/MS) in positive or negative ionization mode. The analysis of the complete list of analytes (SI Table S1) required a total of five instrumental runs.
(§3) Quality assurance steps included analysis of lab blanks for water and plasma along with matrix recovery spikes. […] Detection limits (DLs) were defined as lowest calibration level adjusted to the maximal sample size or 3 times the signal of the noise in the target channel converted to an equivalent sample, whichever was greater. […] Where analytes were detected in two or more samples of the same species or series of water samples, non-detect values were converted to ½ the DL value for reporting purposes.

[5] = cited from earlier work; for whole fish concentration, salmon: ref Meador et al. 18
[6] = Jordan Harbour brown bullhead, wet weight
Experimental: as §1, §2

in vivo = settings: goldfish (Carassius auratus), in vivo, plasma concentration, wet weight
Text: Cages were visited weekly, and fish (13/cage) were fed during the visits (20 g/cage). All animal experiments were in accordance with CCAC guidance and approved by the GLLFAS-WSTD Animal Care Committee (Government of Canada). Further details on the caging and preparation of the fish and animal care protocols are provided in Simmons et al.[32]. […] A fourth site, Jordan Harbour (JH), a widening of 20 Mile Creek adjacent to Lake Ontario near Jordan ON, served as a reference site. Mass and fork length were measured and recorded. Plasma collection and storage is described in the SI. Plasma of caged goldfish was divided for proteome, metabolome and PPCP analysis. Due to limited volumes, pooled samples of plasma from 25 individual fish (50 µL/individual) was pooled to yield one sample from at each location for PPCP analysis.
as §2, §3

[7] = cited from earlier work

SMILES	log Kow [2]	whole fish concentration, sculpin [3]	Cootes carp plasma, range of concentrations [4]	plasma concentration, CPM-C 01 ([4]; wet weight)	plasma concentration, CPM-C 2 ([4]; wet weight)	plasma concentration, CPM-C 10 ([4]; wet weight)	plasma concentration, CPM-C 13 ([4]; wet weight)	plasma concentration, CPM-C 20 ([4]; wet weight)	plasma concentration, CPM-C 36 ([4]; wet weight)	plasma concentration, JH-C 75 ([4]; wet weight)	Carp plasma concentration, this study (range) ([4]; Table S7)	plasma concentration, carp, this study (mean) [4]	plasma concentration, goldfish, this study (mean) [4]	whole fish concentration, salmon [5]	plasma concentration, JH-BB [6]	also measured
CCCCC(=O)N(Cc1ccc(-c2ccccc2-c2nnn[nH]2)cc1)[C@H](C(=O)O)C(C)C [Valsartan]	3.07	< mdl	0.42 to 1.23 ng/g	0.422 ng/g	1.23 ng/g	0.605 ng/g	0.625 ng/g	0.431 ng/g	0.570 ng/g	< 1.2 ng/g	0.42 to 1.23 ng/g	0.65 ng/g wet weight or ng/mL for plasma	< mdl	< mdl		Therapeutic "normal" blood-plasma/serum concentration [1]: ~800 to 6000 ng/mL
CC(C(=O)O)c1ccc(CC(C)(C)O)cc1 (stereo not shown) [2-Hydroxy-ibuprofen]				< 16.9 ng/g	< 23 ng/g	< 24.2 ng/g	< 24.9 ng/g	< 17.2 ng/g	< 22.9 ng/g	< 24.1 ng/g					< 30.4 ng/g	plasma concentration, JH-C 54 ([4]; Jordan Harbour carp 54, Nov 7, 2011, male, wet weight): < 16.9 ng/g; plasma concentration, JH-C 73 ([4]; Jordan Harbour carp 73, Nov 7, 2011, female, wet weight): < 16.5 ng/g; plasma concentration, JH-C 74 ([4]; Jordan Harbour carp 74, Nov 7, 2011, male, wet weight): < 17 ng/g; plasma concentration, JH-C 78 ([4]; Jordan Harbour carp 78, Nov 7, 2011, male, wet weight): < 38.5 ng/g; plasma concentration, JH-C 82 ([4]; Jordan Harbour carp 82, Nov 7, 2011, female, wet weight): 17 ng/g
NCCC(Oc1ccc(C(F)(F)F)cc1)c1ccccc1 (stereo not shown) [Norfluoxetine]				0.338 ng/g	0.216 ng/g	0.227 ng/g	0.234 ng/g	0.179 ng/g	0.215 ng/g		0.18 to 0.34 ng/g				< 0.57 ng/g	concentration at 21 days (in vivo; CPM1 caged, CPM1, 07-2014, pooled plasma): 0.879 ng/g; concentration at 21 days (in vivo; CPM2 caged, CPM2, 07-2014, pooled plasma): 0.58 ng/g; concentration at 21 days (in vivo; CPM3 caged, CPM3, 07-2014, pooled plasma): 0.168 ng/g; concentration at 21 days (in vivo; JH caged, Jordan Harbour reference site, 07-2014, pooled plasma): < 0.413 ng/g; Goldfish plasma concentration, this study (range) ([4]; Table S7): 0.17 to 1.1 ng/g; plasma concentration, CPM wild-01 ([4]; wild goldfish sample 01, 2012, wet weight): 0.300 ng/g; plasma concentration, CPM wild-02 ([4]; wild goldfish sample 02, 2012, wet weight): 0.654 ng/g; plasma concentration, CPM wild-03 ([4]; wild goldfish sample 03, 2012, wet weight): 1.1 ng/g
O=C(Nc1ccc(Cl)cc1)Nc1ccc(Cl)c(Cl)c1 [Triclocarban]	4.90	< mdl	0.32 to 3.35 ng/g	0.317 ng/g	0.431 ng/g	0.453 ng/g	0.468 ng/g	0.324 ng/g	3.35 ng/g		0.32 to 3.35 ng/g	0.89 ng/g wet weight or ng/mL for plasma	< mdl	6.5 ng/g wet weight or ng/mL for plasma	< 1.14 ng/g	BAFP in carp plasma, median [7]: 6.9; plasma concentration, crucian carp & common carp ([7]; mean ± SD, ref Tanoue et al.16): 0.34±0.20 ng/g wet weight or ng/mL for plasma; Salmon (whole body) concentration ([5]; Table S7, ref Meador et al. (2016)): 6.5 ng/g
